# Data as given in patent US20240425496A1, “AZETIDINYL PYRIMIDINES AND USES THEREOF” (Aerie Pharmaceuticals, Inc., priority 2021, published 2024).
# What was measured:
# TYK2 = TYK2 (Homo sapiens (Human), UniProt P29597); assay: JAK kinase assay (KINASE-GLO luminescent), TYK2 enzyme; type: biochemical; settings: TYK2 enzyme 10 nM, Abl peptide substrate
# Procedure: (§1) All compounds were initially prepared as 10 mM stocks in anhydrous dimethylsulfoxide (DMSO). […] Test compounds were then serially diluted 1:5 in DMSO for an 11-point concentration response and further diluted in the assay buffer bringing all compound concentrations to a final range of 100 μM to 10 μM in 2.5% DMSO. […] The reaction was initiated by the addition of 10 μL of 4× stock solution ATP (2 μM). Reactions were thoroughly mixed manually, covered, and allowed to incubate at room temperature for 75 min. Protein kinase activity was quantitated using Promega's KINASE-GLO™ luminescent Kinase Assay Kit according to the manufacturer's directions. ATP concentrations remaining in Test wells following the termination of the enzymatic reaction were compared against control wells containing equivalent amounts of DMSO containing no inhibitor (CTRL). […] Percent of Control (POC) values were determined for each concentration of compound tested according to the equation: […]
# (§2) IC50 values were calculated using the following 4-parameter logistic curve-fitting algorithm:
# (§3) Compounds were prepared in the exact same manner as described in the ROCK Kinase Assay with the exception to the substrate and enzyme. […] All other steps and solutions remain identical to the ROCK Kinase Assay above.
# JAK1 = JAK1 (Homo sapiens (Human), UniProt P23458); assay: JAK kinase assay (KINASE-GLO luminescent), JAK1 enzyme; type: biochemical; settings: JAK1 enzyme 10 nM, Abl peptide substrate
# Chain of JAK1 (P23458 whole entry, species assumed): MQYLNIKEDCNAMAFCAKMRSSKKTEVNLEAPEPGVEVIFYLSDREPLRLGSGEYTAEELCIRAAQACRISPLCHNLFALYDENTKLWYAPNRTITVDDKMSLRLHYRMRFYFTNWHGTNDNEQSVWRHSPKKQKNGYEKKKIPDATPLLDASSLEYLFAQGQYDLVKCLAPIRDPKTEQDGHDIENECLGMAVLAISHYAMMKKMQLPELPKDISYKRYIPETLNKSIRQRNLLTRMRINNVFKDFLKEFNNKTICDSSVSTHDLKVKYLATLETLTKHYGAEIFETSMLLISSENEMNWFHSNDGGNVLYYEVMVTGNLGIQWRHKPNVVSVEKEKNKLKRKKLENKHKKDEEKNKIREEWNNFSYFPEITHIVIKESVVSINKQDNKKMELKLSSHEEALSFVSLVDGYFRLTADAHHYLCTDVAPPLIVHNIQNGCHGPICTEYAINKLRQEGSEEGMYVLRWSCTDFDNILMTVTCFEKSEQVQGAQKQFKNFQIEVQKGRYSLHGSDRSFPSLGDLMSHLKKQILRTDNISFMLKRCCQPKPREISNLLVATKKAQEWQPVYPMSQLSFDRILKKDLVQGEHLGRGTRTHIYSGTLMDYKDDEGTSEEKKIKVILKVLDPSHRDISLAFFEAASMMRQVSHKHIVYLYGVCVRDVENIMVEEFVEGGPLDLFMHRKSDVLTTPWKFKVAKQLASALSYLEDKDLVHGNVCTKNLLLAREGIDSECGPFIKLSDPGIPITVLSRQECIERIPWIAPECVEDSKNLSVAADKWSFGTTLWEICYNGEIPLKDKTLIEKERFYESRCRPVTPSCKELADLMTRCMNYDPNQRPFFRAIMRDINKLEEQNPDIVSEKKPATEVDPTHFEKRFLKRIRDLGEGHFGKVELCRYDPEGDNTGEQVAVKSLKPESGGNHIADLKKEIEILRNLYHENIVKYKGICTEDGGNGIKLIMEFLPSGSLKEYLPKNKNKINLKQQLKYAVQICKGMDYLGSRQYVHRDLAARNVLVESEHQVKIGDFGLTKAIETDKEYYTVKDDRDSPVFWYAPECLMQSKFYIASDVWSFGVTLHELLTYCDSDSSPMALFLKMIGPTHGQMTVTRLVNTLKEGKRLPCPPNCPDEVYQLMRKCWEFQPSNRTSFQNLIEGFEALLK
# Procedure: as §1, §2, §3
# Chain of TYK2 (P29597 whole entry, species assumed): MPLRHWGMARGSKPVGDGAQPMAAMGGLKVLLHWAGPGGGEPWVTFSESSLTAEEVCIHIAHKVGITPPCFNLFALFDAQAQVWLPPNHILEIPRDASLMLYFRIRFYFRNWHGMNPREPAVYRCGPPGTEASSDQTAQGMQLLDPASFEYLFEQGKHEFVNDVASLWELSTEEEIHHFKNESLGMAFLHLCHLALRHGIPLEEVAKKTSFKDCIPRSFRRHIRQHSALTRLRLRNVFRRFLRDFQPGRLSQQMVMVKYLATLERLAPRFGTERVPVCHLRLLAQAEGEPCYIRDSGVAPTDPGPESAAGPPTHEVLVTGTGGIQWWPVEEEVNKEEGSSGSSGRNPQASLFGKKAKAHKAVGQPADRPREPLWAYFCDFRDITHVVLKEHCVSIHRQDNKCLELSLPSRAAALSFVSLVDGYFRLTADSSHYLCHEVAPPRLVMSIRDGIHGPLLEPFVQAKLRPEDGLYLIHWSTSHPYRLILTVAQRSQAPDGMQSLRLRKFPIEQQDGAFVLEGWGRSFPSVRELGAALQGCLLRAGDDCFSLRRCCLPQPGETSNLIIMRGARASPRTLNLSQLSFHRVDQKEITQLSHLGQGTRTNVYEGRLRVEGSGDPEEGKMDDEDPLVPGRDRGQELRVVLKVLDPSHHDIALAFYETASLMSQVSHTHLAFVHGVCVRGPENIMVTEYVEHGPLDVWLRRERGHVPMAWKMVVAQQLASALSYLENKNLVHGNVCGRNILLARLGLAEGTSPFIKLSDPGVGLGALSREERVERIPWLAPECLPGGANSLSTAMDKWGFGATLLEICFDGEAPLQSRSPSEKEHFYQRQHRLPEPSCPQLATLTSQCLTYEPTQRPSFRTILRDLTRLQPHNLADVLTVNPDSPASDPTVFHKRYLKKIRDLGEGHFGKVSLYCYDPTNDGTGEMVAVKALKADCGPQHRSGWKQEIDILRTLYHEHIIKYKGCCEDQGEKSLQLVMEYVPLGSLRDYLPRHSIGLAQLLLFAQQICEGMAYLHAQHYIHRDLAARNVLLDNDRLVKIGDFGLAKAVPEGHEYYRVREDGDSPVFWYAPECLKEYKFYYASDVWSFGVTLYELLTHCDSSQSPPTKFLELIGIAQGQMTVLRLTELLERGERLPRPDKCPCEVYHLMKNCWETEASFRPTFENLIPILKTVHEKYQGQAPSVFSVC
Structure (SMILES),IC50 (TYK2),IC50 (JAK1)
Cc1cc(Nc2ncc(C)c(N3CC(CC#N)(N4CCCN(C)CC4)C3)n2)sn1 [E52G],< 50 nM,< 100 nM
Cc1cnc(Nc2cnn(C)c2)nc1N1CC(=CC#N)C1 [E174a],< 200 nM,< 100 nM
Cc1cc(Nc2nccc(N3CC(CC#N)(N4CCCCC4)C3)n2)sn1 [E45],< 20 nM,< 200 nM
Cc1cnc(Nc2cnn(C)c2)nc1N1CC(CC#N)(N2CCN3CCC[C@H]3C2)C1 [E162a],< 50 nM,< 50 nM
Cc1cc(Nc2ncc(C)c(N3CC(CC#N)(NC(=O)c4cncc(F)c4)C3)n2)sn1 [E353],< 50 nM,< 20 nM
Cc1cc(Nc2ncc(C)c(N3CC(=CC#N)C3)n2)sn1 [E117-X],< 75 nM,< 75 nM
Cc1cc(Nc2ncc(C)c(N3CC(CC#N)(N4CCC(CS(C)(=O)=O)CC4)C3)n2)sn1 [E47],< 10 nM,< 10 nM
Cc1cc(Nc2ncc(C3CC3)c(N3CC(CC#N)(N4CCN5C[C@H](F)C[C@H]5C4)C3)n2)sn1 [E102a],< 10 nM,< 10 nM
Cc1cc(Nc2ncc(C)c(N3CC(CCF)(N4CCCCC4)C3)n2)sn1 [E116a],< 10 nM,< 50 nM
Cc1cc(Nc2nccc(N3CC(CC#N)(N4CCN5C[C@H](F)C[C@H]5C4)C3)n2)sn1 [E97a],< 10 nM,< 50 nM
Cc1cnc(Nc2ccc3c(c2)CN(C)C3)nc1N1CC(CC#N)(N2CCC(F)CC2)C1 [E216-E],< 10 nM,< 10 nM
Cc1cc(Nc2ncc(C)c(N3CC(CC#N)(N4CCN5C[C@H](C)C[C@H]5C4)C3)n2)sn1 [E117a],< 10 nM,< 50 nM
Cc1cc(Nc2ncc(C)c(N3CC(CC#N)(N4CCC(CC(F)F)CC4)C3)n2)sn1 [E20],< 10 nM,< 10 nM
CCN1CCN(C2(CC#N)CN(c3nc(Nc4cc(C)ns4)ncc3C)C2)CC1 [E52],< 10 nM,< 10 nM
Cc1cc(Nc2ncc(C)c(N3CC(CC#N)(N4CC5(C4)CC(F)(F)CO5)C3)n2)sn1 [E112a],< 50 nM,< 50 nM
Cc1cc(Nc2ncc(C)c(N3CC(N)(CC#N)C3)n2)sn1 [E117-AA],< 50 nM,< 100 nM
Cc1cc(Nc2ncc(C)c(N3CC(CC#N)(N4CCN5CC6(CC6)C[C@H]5C4)C3)n2)sn1 [E76a],< 10 nM,< 10 nM
Cc1cc(Nc2ncc(C)c(N3CC(CC#N)(OC4CC5(C4)CC5(F)F)C3)n2)sn1 (centres unmarked) [E106a],< 10 nM,< 10 nM
Cc1cc(Nc2ncc(C)c(N3CC(C)(CNC(=O)C4CCN(C(=O)OC(C)(C)C)CC4(F)F)C3)n2)sn1 (centres unmarked) [E284],< 200 nM,< 100 nM
Cc1cnc(Nc2ccc(C3COC3)cc2)nc1N1CC(CC#N)(N2CCN(C)CC2)C1 [E216-L],< 20 nM,< 50 nM
Cc1cc(Nc2ncc(C)c(N3CC(CC#N)(NCC4CN(C)C4)C3)n2)sn1 [E68a],< 500 nM,< 500 nM
Cc1cc(Nc2ncc(C)c(N3CC(C4CC4)(N4CCCCC4)C3)n2)sn1 [E107a],< 50 nM,< 100 nM

Structure (SMILES),IC50 (TYK2),IC50 (JAK1)
Cc1cc(Nc2ncc(C)c(N3CC(CC#N)(N4CCCC(C)C4)C3)n2)sn1 (centres unmarked) [E15],< 10 nM,< 10 nM
Cc1cc(Nc2ncc(C)c(N3CC(CCO)(N4CCN5CCC[C@H]5C4)C3)n2)sn1 [E103a],< 10 nM,< 10 nM
Cc1cc(Nc2ncc(C)c(N3CC(CCF)(N4CCN5C[C@H](F)C[C@H]5C4)C3)n2)sn1 [E117-A],< 10 nM,< 50 nM
Cc1cnc(Nc2ccc(N3CCOCC3)nc2)nc1N1CC(CCC#N)C1 [E216-S],< 100 nM,< 100 nM
Cc1cc(Nc2ncc(C)c(N3CC(CC#N)(OC4CC5(CC5)C4)C3)n2)sn1 [E99a],< 10 nM,< 10 nM
Cc1cc(Nc2ncc(C)c(N3CC(CC#N)(N4CC5NCCOC5C4)C3)n2)sn1 (centres unmarked) [E117-B],< 100 nM,< 50 nM
Cc1cc(Nc2ncc(C)c(N3CC(CC#N)(NC(=O)c4ccccn4)C3)n2)sn1 [E296],< 20 nM,< 20 nM
Cc1cnc(Nc2cc(C3CC3)ns2)nc1N1CC(CC#N)(N2CCN(C)CC2)C1 [E18],< 5 nM,< 5 nM
Cc1cnc(Nc2cc(CN(C)C)ns2)nc1N1CC(CC#N)(N2CCN3CCCC[C@H]3C2)C1 [E117-S],< 10 nM,< 25 nM
Cc1cnc(Nc2cnn(C3CC3)c2)nc1N1CC(CC#N)(N2CCN3C[C@H](F)C[C@H]3C2)C1 [E175-C],< 10 nM,< 10 nM
Cc1cc(Nc2ncc(C)c(N3CC(CC#N)(NCC4CCC(F)(F)C4)C3)n2)sn1 (centres unmarked) [E358],< 10 nM,< 10 nM
Cc1cc(N(c2ncc(C)c(N3CC(CC#N)(NS(C)(=O)=O)C3)n2)S(C)(=O)=O)sn1 [E292],< 1000 nM,< 5000 nM
Cc1cnc(Nc2cnn(C)c2)nc1N1CC(CC#N)(N2CC3(C2)CC(F)(F)CO3)C1 [E172a],< 100 nM,< 100 nM
Cc1cc(Nc2ncc(C)c(N3CC(CC#N)(N4CCN(CC5CC5)CC4)C3)n2)sn1 [E48],< 10 nM,< 10 nM
Cc1cc(Nc2ncc(C)c(N3CC(CC#N)(N4CC5(CN(C)C5)C4)C3)n2)sn1 [E42],< 1000 nM,< 1000 nM
Cc1cnc(Nc2ccccc2)nc1N1CC(CC#N)(N2CCN(C)CC2)C1 [E216-N],< 30 nM,< 70 nM
Cc1cc(Nc2ncc(C)c(N3CC(CC#N)(N4CC5(C4)CC5(F)F)C3)n2)sn1 [E88a],< 10 nM,< 10 nM
Cc1cc(Nc2ncc(C)c(N3CC(O)(CC#N)C3)n2)sn1 [E114a],< 10 nM,< 20 nM
Cc1cc(Nc2ncc(C)c(N3CC(CC#N)(N4CCC5(CC4)CN(C)C5)C3)n2)sn1 [E28],< 50 nM,< 50 nM
Cc1cc(Nc2ncc(C)c(N3CC(CC#N)(NC(=O)c4cccc(F)c4F)C3)n2)sn1 [E312],< 10 nM,< 10 nM
Cc1cc(Nc2ncc(C)c(N3CC(CC#N)(NCC4CC4(F)F)C3)n2)sn1 (centres unmarked) [E357],< 10 nM,< 20 nM
Cc1cc(Nc2ncc(C)c(N3CC(CC#N)(NC(=O)Cc4cccnc4)C3)n2)sn1 [E281],< 50 nM,< 100 nM

Structure (SMILES),IC50 (TYK2),IC50 (JAK1)
Cc1cnc(Nc2cnn(C)c2)nc1N1CC(C)(NC(=O)c2cccc(F)c2)C1 [E307],< 100 nM,< 20 nM
CO[C@H]1C[C@H]2CN(C3(CC#N)CN(c4nc(Nc5cc(C)ns5)ncc4C)C3)CCN2C1 [E71a],< 10 nM,< 10 nM
Cc1cc(Nc2ncc(C)c(N3CC(CC#N)(N4CCN(C)C5(CC5)C4)C3)n2)sn1 [E38],< 10 nM,< 10 nM
Cc1cc(Nc2nccc(N3CC(CC#N)(N4CCN5CC6(CC6)C[C@H]5C4)C3)n2)sn1 [E82a],< 20 nM,< 50 nM
Cc1cnc(Nc2ccccc2)nc1N1CC(CC#N)(N2CCN(C)CC2)C1 [E216-V],< 50 nM,< 100 nM
Cc1cnc(Nc2cnn(C)c2)nc1N1CC(CC#N)(N2CCn3cccc3C2)C1 [E164a],< 10 nM,< 10 nM
Cc1cnc(Nc2cnn(C)c2)nc1N1CC(CC#N)(N2CCN3CCCC[C@@H]3C2)C1 [E159a],< 100 nM,< 120 nM
Cc1cc(Nc2ncc(C)c(N3CC(CC#N)(N4CCOCC4)C3)n2)sn1 [E9],< 10 nM,< 10 nM
Cc1cc(Nc2ncc(C)c(N3CC(CC#N)(N4CCCN5CCCC5C4)C3)n2)sn1 (centres unmarked) [E115a],< 50 nM,< 200 nM
Cc1cnc(Nc2cnn(C)c2)nc1N1CC2(C1)CC2(F)F [E82],< 20 nM,< 20 nM
"Cc1cnc(Nc2cnn(C)c2)nc1N1CC(CC#N)(N2CCN3C[C@H](F)C[C@H]3C2)C1 [E152a, 2-(3-((7R,8aS)-7-fluorohexahydropyrrolo[1,2-a]pyrazin-2(1H)-yl)-1-(5-methyl-2-((1-methyl-1H-pyrazol-4-yl)amino)pyrimidin-4-yl)azetidin-3-yl)acetonitrile]",< 10 nM,< 10 nM
Cc1cc(Nc2ncc(C)c(N3CC(CC#N)(N4CCN5CCC[C@H]5C4)C3)n2)sn1 [E62a],< 50 nM,< 50 nM
Cc1cc(Nc2ncc(C)c(N3CC(CC#N)(N4CC(C)CC(C)C4)C3)n2)sn1 (centres unmarked) [E16],< 5 nM,< 5 nM
"Cc1cc(Nc2ncc(C)c(N3CC(CC#N)(N4CCN(C)CC4)C3)n2)sn1 [E5, 2-(1-(5-methyl-2-((3-methylisothiazol-5-yl)amino)pyrimidin-4-yl)-3-(4-methyl-piperazin-1-yl)azetidin-3-yl)acetonitrile]",< 10 nM,
Cc1cc(Nc2ncc(C)c(N3CC(CC#N)(N4CCCCC4)C3)n2)sn1 [E10],,< 10 nM
Cc1cc(Nc2ncc(C3CC3)c(N3CC(CC#N)(N4CCCCC4)C3)n2)sn1 [E32],< 10 nM,< 50 nM
Cc1cc(Nc2ncc(C)c(N3C4CC3CN(CCC#N)C4)n2)sn1 [E117-AD],< 1000 nM,< 1000 nM
Cc1cc(Nc2ncc(C)c(N3CC(CC#N)(N4CCC5(CC4)COC5)C3)n2)sn1 [E26],< 10 nM,< 10 nM
Cc1cnc(Nc2cnn(C)c2)nc1N1CC(CC#N)(N2CCN3CC(C)(C)C[C@H]3C2)C1 [E173a],< 10 nM,< 10 nM
Cc1cc(Nc2ncc(C)c(N3CC(CC#N)C3)n2)sn1 [E6],< 10 nM,
